The target in data set [1] is T1, SLC6a8 (Homo sapiens, UniProt P48029).
T1 sequence (P48029 1-635): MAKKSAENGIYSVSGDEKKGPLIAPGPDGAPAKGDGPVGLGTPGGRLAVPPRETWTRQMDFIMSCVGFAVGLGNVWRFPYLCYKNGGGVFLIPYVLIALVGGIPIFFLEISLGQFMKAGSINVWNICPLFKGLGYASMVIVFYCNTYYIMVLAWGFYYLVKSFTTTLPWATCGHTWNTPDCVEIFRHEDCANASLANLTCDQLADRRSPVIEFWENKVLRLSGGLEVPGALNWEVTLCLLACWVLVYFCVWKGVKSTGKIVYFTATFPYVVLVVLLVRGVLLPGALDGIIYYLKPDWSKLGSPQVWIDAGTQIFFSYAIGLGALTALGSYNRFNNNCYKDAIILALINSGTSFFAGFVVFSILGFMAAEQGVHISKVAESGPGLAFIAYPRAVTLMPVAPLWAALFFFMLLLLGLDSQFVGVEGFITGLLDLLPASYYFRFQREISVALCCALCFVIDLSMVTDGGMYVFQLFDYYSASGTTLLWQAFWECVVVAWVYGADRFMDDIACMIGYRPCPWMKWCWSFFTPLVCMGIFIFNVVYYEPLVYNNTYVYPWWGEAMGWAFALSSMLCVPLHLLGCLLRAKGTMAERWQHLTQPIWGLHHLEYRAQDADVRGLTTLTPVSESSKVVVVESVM
Put plainly: Liver metastasis by SW480 cells expressing shRNA targeting SLC6a8. In kind it is in vivo, mice. To be noted: 5×10^5 SW480 cells; 28 days. The procedure: (§1) pLKO vectors expressing shRNA hairpins targeting CKB and SLC6a8 were ordered from Sigma-Aldrich. Two independent hairpins that gave the best knockdown of transcript levels were used for all experiments. These hairpin DNA and RNA sequences are listed below:
To further confirm the therapeutic benefit of knockdown of SLC6a8, another independent colon cancer cell line (SW480 colon cancer cell line) expressing a short hairpin RNA targeting SLC6a8 (shSLC6a8 #2) was injected into mice (FIG. 3b).

Data set [2] has as its system LvM3b cells. Briefly: Liver metastasis in mice injected with LvM3b cells, treated by daily intra-peritoneal injection, bioluminescent imaging. In kind it is in vivo. As to the method: Mice were treated with 10 mg of cyclocreatine or saline vehicle, administered through intra-peritoneal injection. The treatment regime started one day after inoculation of tumor cells and continued until the mice were euthanized. Beta-guanidipropionic acid was administered at a dose of 200 ul of 0.5M solution through intra-peritoneal injection. Treatment regime were as that for cyclocreatine treatment.
Finally, assays were carried out to determine the impact of small-molecule inhibition of CKB and restriction of creatine availability on colon cancer metastasis. Cyclocreatine, which resembles phosphocreatine, is a transition-state analog for creatine kinases. To examine the effect of cyclocreatine, bioluminescent measurements of liver metastasis were carried out in mice injected with 5×10^5 LvM3b cells and treated with cyclocreatine daily for two weeks. The mice were then euthanized and livers excised for ex vivo imaging at the end of the treatment.
Similar assays were carried out using a creatine transporter inhibitor beta-guanidinopropionic acid (B-GPA). Bioluminescent measurements were used to examine liver metastasis in mice injected with 5×10^5 LvM3b cells and treated with B-GPA daily for two weeks.
In this example, assays were carried out to confirm the therapeutic potential of targeting the creatine transporter channel SLC6a8 by administering the small molecule B-GPA, which is an inhibitor of SLC6a8. […] To confirm this therapeutic effect, mice injected with LvM3b colon cancer cells we treated with either B-GPA or control vehicle (PBS) via intra-peritoneal injection daily for three weeks (FIG. 2). The mice were euthanized at three weeks and liver extracted for bioluminescent imaging and gross histology.
More specifically, the average photon flux ratios as measure by the bioluminescence imaging for the control group (without treatment of B-GPA) and the treated groups were about 800 and 100, respectively.

The test system of data set [3] is PANC1 pancreatic cancer cells. Briefly: Survival of PANC1 cells pre-treated with B-GPA in immunodeficient mice, bioluminescence imaging. In kind it is in vivo. Conditions: PANC1 cells pre-treated 10 mM 48 hours. The procedure: Briefly, PANC1 pancreatic cancer cells were incubated for 48 hours with and without the presence of 10 mM of B-GPA, then injected into immunodeficient mice (5×10^5 PANC1 cells each mouse; 4 mice each in the treated and untreated cohort). The mice were imaged with bioluminescence imaging on day 1 after injection and signal was normalized to day zero. […] More specifically, the average photon flux ratios as measure by the bioluminescence imaging for the control group (without treatment of B-GPA) and the treated groups were about 2.7 and 1.6, respectively.

Data set [4] deals with PANC1 pancreatic cancer cells. Put plainly: Cell viability of PANC1 cells, WST-1 reagent, Gemcitabine with or without B-GPA. In kind it is cell-based, human. To be noted: 10 mM B-GPA, 48 hours, Gemcitabine 1 nm-1000000 nm. The procedure: Briefly, 10000 PANC1 cells were seeded in triplicate in 96-well plates and treated with various concentrations of Gemcitabine (1 nm, 10 nm, 100 nm, 1000 nm, 10000 nm, 100000 nm, and 1000000 nm) with or without 10 mM of B-GPA for 48 hours. Cell viability was then assayed using the WST-1 reagent (Roche Applied Science), with absorbance at 440 nm an indicator of the number of viable cells.
For orientation: Tetrazolium dyes change colour on reduction, which living cells bring about.

Data set [5] has as its system Ls-LvM3b colon cancer cells. Put plainly: Cell viability of Ls-LvM3b cells, WST-1 reagent, 5'-Fluorouracil with or without B-GPA. In kind it is cell-based, human. Conditions: 10 mM B-GPA, 48 hours. The procedure:
To that end, 10,000 Ls-LvM3b cells were seeded in triplicate in 96-well plates and treated with various concentrations of 5′-Fluorouracil with or without 10 mM of B-GPA for 48 hours. Cell viability was assayed in the same manner described above with absorbance at 440 nm an indicator of the number of viable cells.

Data set [6] deals with T1, SLC6a8. Put plainly: Liver metastasis by LvM3b cells expressing shRNA targeting SLC6a8. In kind it is in vivo, mice. Further details: endogenous in cells; host or cells: LvM3b colon cancer cells (derivative of LS-174T) injected into mice. To be noted: three weeks after inoculation. The procedure: as §1
Briefly, mice were injected with LvM3b colon cancer cells expressing either of two independent short hairpin RNAs (shSLC6a8 #4 or shSLC6a8 #5) targeting the creatine transporter channel SLC6a8 or with control RNA (empty pLKO vector, ordered from Sigma Aldrich) (FIG. 3a). Again, liver metastasis was monitored by bioluminescent imaging and mice were euthanized three weeks after inoculation of cancer cells. Livers were extracted for gross histology.

Data set [7] concerns the target T1, SLC6a8. Put plainly: Liver metastasis by PANC1 cells expressing shRNA targeting SLC6a8. In kind it is in vivo, mice. Conditions: at 28 days.
Description: as §1
Lastly, the therapeutic benefit of targeting SLC6a8 was investigated in pancreatic cancer cells. To accomplish this, PANC1 pancreatic cancer cells expressing either an shRNA targeting SLC6a8 (shSLC6a8 #5) or a control RNA (empty pLKO vector) were injected into mice. Metastatic progression was monitored by bioluminescent imaging and mice were euthanized in the same manner described above.

In data set [8] the test system is LvM3b cells. Put plainly: Liver metastasis in mice injected with LvM3b cells with or without CKB knockdown, pre-treated with metabolite. To be noted: for rescue of metastasis suppression upon CKB knockdown: LvM3b cells with CKB knockdown, pre-treated 10 uM, day 21. In kind it is in vivo. The text has this:
CKB is known to regulate the reservoir of rapidly mobilized high-energy phosphates in tissues such as the brain and kidneys by catalyzing the transfer of a high-energy phosphate group from phosphocreatine to ADP, yielding ATP and creatine. It was hypothesized that CKB generation of ATP from phosphocreatine might provide colon cancer cells with an energetic advantage during hepatic colonization. To determine if ATP, the end-product of CKB catalysis, could rescue metastasis suppression seen upon CKB knockdown, CKB knockdown cells were loaded with ATP prior to injection of cells in experimental metastasis assays. Briefly, liver metastasis was examined in mice injected with 5×10^5 LvM3b with or without CKB knockdown and pre-treated with 100 uM ATP or vehicle. Metastatic burden was monitored by bioluminescent imaging and mice euthanized 21 days after injection.
Similar studies were done to determine whether creatine and phosphocreatine could rescue the phenotype of seen upon CKB knock-down. More specifically, assays were performed to examine liver metastasis in mice injected with 5×10^5 LvM3b cells pre-treated with 10 uM creatine, in the background of CKB knockdown. The mice were then euthanized as described above and liver extracted for ex vivo bioluminescent imaging at day 21 after injection. Also, colorectal cancer metastasis was examined in mice injected with 5×10^5 LvM3b cells with CKB knockdown and pre-treated with 10 uM creatine-phosphate. Liver metastasis was monitored by bioluminescent imaging and mice were euthanized as described above.

Where [9] appears, read: 5×10^5 LvM3b cells, treated daily for two weeks.

In the case of “shSLC6a8 #2: short hairpin RNA targeting SLC6a8, SEQ ID NO 19 (DNA) / 20 (RNA) (CCGGGCUGGUCUACAACAACACCUACUCGAGUAGGUGUUGUUGUAGACCAGCUUUUUG; listed as RNA, chemistry not fully specified)”, in data set [1], the “metastasis of SW480 colon cancer cells” value was “significantly inhibited metastasis”.

As to `N=C(N)NCCC(=O)O` [B-GPA, beta-guanidinopropionic acid], the “metastatic colonization (liver metastasis, bioluminescence)” value in data set [2] (setting [9]) is “significantly reduced metastatic colonization”. Also, the “average photon flux ratio (bioluminescence imaging)” value in data set [2] (LvM3b cells, daily for three weeks, control group about 800) is reported as ~100; in data set [3] (day 1 normalized to day zero, control group about 2.7) it was ~1.6. Also, the “colon cancer metastasis to the liver” value in data set [2] (LvM3b cells, intra-peritoneal injection daily for three weeks, P<0.05) is “significant reduction”. In addition, in data set [3] (one day after injection, P<0.05), the “tumor burden of pancreatic cancer cells in vivo” value was “significant reduction”. The “effect on cytotoxic activity of Gemcitabine” value in data set [4] is “enhanced the cytotoxic activity”. The “effect on cytotoxic activity of 5'-Fluorouracil” value in data set [5] is “enhanced the cytotoxic activity”.

For the compound “shSLC6a8 #5: short hairpin RNA targeting SLC6a8, SEQ ID NO 14 (DNA) / 18 (RNA) (CCGGAUUACCUGGUCAAGUCCUUUACUCGAGUAAAGGACUUGACCAGGUAAUUUUUUG; listed as RNA, chemistry not fully specified)”, the “colon cancer metastasis (liver)” value in data set [6] was “inhibition of colon cancer metastasis”. Besides, the pancreatic cancer metastasis result in data set [7] was “significant reduction in pancreatic cancer metastasis”.

In the case of `CN(CC(=O)O)C(=N)N` [creatine], the “rescue of metastasis suppression upon CKB knockdown” value in data set [8] is “rescued metastasis suppression”.

Consider `NC1=NCCN1CC(=O)O` [cyclocreatine], for which, in data set [2] (setting [9]), the “comparison with standard-of-care FOLFOX chemotherapy” value is “superior to the current standard-of-care FOLFOX chemotherapy” and the “metastatic colonization (liver metastasis, bioluminescence)” value was “significantly reduced metastatic colonization”.

creatine-phosphate: the “rescue of metastasis suppression upon CKB knockdown” value in data set [8] was “rescued metastasis suppression”.

Consider “shSLC6a8 #4: short hairpin RNA targeting SLC6a8, SEQ ID NO 13 (DNA) / 17 (RNA) (CCGGCUUAUUCCCUACGUCCUGAUCCUCGAGGAUCAGGACGUAGGGAAUAAGUUUUUG; listed as RNA, chemistry not fully specified)”, for which the “colon cancer metastasis (liver)” value in data set [6] is “inhibition of colon cancer metastasis”.

For `Nc1ncnc2c1ncn2[C@@H]1O[C@H](COP(=O)(O)OP(=O)(O)OP(=O)(O)O)[C@@H](O)[C@H]1O` [ATP], the “enhancement of suppressed metastasis phenotype” value in data set [8] (LvM3b cells depleted of CKB, pre-treated 100 uM, 21 days) was “more than 10 folds”. For the same compound, the “metastatic activity of cells expressing a short-hairpin control” value in data set [8] (LvM3b control hairpin cells, pre-treated 100 uM) was “did not enhance the metastatic activity”.

The record behind these values is US10406128B2, “Treatment and diagnosis of colon cancer” (The Rockefeller University, priority 2012, dated 2019).
